The results in this text go back to US20060074243A1, “Hydroxamic acid and amide compounds and their use as protease inhibitors” (Pharmacia Corporation, priority 2002, published 2006).

The target of the assay is T1, Human recombinant MMP-13 (Homo sapiens, UniProt P45452).
T1 construct: made in house; host or cells: baculovirus / insect cells
Nature of the assay: In vitro MMP inhibition analysis (fluorogenic peptide substrate cleavage), Ki. It is filed as biochemical. The settings on record: Table 2. The essentials:
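Baculovirus-expressed full-length MMP-13 proenzyme was purified on heparin-agarose and zinc-chelate columns, then APMA-activated. It cleaved 4 μM MCA/Dpa fluorogenic peptide in 100 mM Tris-HCl, 100 mM NaCl, 10 mM CaCl2, 0.05% Brij-23, pH 7.5, for 1 h at room temperature (ex 330/em 420 nm). Ki came from Morrison-equation fits with substrate ≤Km, uncorrected.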
As a reminder, the Ki is the equilibrium dissociation constant of an inhibitor or competing ligand from its target. As to `CC(C)Cc1ccc(-c2ccc(S(=O)(=O)C3(C(=O)NO)CCOCC3)cc2)nc1` [Example 103], the Ki was 0.117 nM.
For `CCN1CCC(C(=O)NO)(S(=O)(=O)c2ccc(-c3ccc(OCCOC)c(F)c3)cc2)CC1` [Example 110], the Ki was found to be 0.144 nM.
To `COC(C)CCOc1ccc(-c2ccc(S(=O)(=O)C3(C(=O)NO)CCOCC3)cc2)cc1C(F)(F)F` (stereo not shown) [Example 100] belongs 9.4 nM; to `COCCN1CCC(C(=O)NO)(S(=O)(=O)c2ccc(-c3ccc(OCCN4CCCC4)cc3)cc2)CC1` [Example 72], 2.25 nM; to `CCCCCc1ccc(-c2ccc(S(=O)(=O)C3(C(=O)NO)CCOCC3)cc2)c(F)c1` [Example 101], 0.4 nM.
To `O=C(NO)C1(S(=O)(=O)c2ccc(-c3cnccn3)cc2)CCOCC1` [Example 71] belongs 1.73 nM.
In the case of `CC(C)CCc1ccc(-c2ccc(S(=O)(=O)C3(C(=O)NO)CCOCC3)cc2)nc1` [Example 99], the Ki amounted to 0.052 nM.
For `CC(C)CCOc1ccc(-c2ccc(S(=O)(=O)C3(C(=O)NO)CCOCC3)cc2)cc1` [Example 108] the value was 0.199 nM.
For `O=C(NO)C1(S(=O)(=O)c2ccc(-c3ccc(CCO)cc3)cc2)CCOCC1` [Example 98] the value was 0.147 nM; for `COCCOc1ccc(-c2ccc(S(=O)(=O)C3(C(=O)NO)CCN(C4CC4)CC3)cc2)cc1` [Example 113], 0.031 nM; for `CCOCCOc1ccc(-c2ccc(S(=O)(=O)C3(C(=O)NO)CCN(CCOC)CC3)cc2)cc1` [Example 117], 0.037 nM.
Consider `CCCCc1nc(-c2ccc(S(=O)(=O)C3(C(=O)NO)CCOCC3)cc2)no1` [Example 105], for which the Ki turned out to be 3.67 nM.
To `COCCOc1ccc(-c2ccc(S(=O)(=O)C3(C(=O)NO)CCN(CCOC)CC3)cc2)cc1` [Example 115] belongs 0.025 nM; to `COc1ccc(-c2ccc(S(=O)(=O)C3(C(=O)NO)CCOCC3)cc2)cc1F` [Example 102], 0.075 nM; to `CCN1CCC(C(=O)NO)(S(=O)(=O)c2ccc(-c3ccc(OCCOC)cc3)cc2)CC1` [Example 111], 0.066 nM.
For `COCCOc1ccc(-c2ccc(S(=O)(=O)C3(C(=O)NO)CCN(CCOC)CC3)cc2)cc1F` [Example 114], the inhibition constant Ki turned out to be 0.042 nM.
To `COCCOc1ccc(-c2ccc(S(=O)(=O)C3(C(=O)NO)CCN(C4CC4)CC3)cc2)cc1F` [Example 112] belongs 0.058 nM.
To `CCOCCOc1ccc(-c2ccc(S(=O)(=O)C3(C(=O)NO)CCN(CC)CC3)cc2)cc1` [Example 116] belongs 0.05 nM; to `O=C(NO)C1(S(=O)(=O)c2ccc(-c3ccc(-c4ccccc4)cc3)cc2)CCOCC1` [Example 104], 0.032 nM.
